Measurements as given in ChEMBL document CHEMBL3217483, “Developing novel non-hydroxamate histone deacetylase inhibitors: the chelidamic warhead” (2012).
The source made the active and inactive calls. No cut-off for these calls is given here.

How the values were obtained:
[1] = molecular target: T1, Histone deacetylase (Homo sapiens) (UniProt Q13547+O15379+Q9UBN7+Q92769+Q9UQL6+Q8WUI4+Q9BY41+Q96DB2+P56524+Q9UKV0+Q969S8); test: Inhibition of HDAC in human U937 cells assessed as slight increase in histone H3 acetylation at 50 uM after 24 hrs by western blot analysis; format: cell-based; conditions: U-937
[2] = molecular target: T1, Histone deacetylase (Homo sapiens); test: Inhibition of HDAC in human U937 cells assessed as slight increase in alpha tubulin acetylation at 50 uM after 24 hrs by western blot analysis; format: cell-based; conditions: U-937
U-937 [3] = test: Cell cycle arrest in human U937 cells assessed as block in S phase at 50 uM after 30 hrs by propidium iodide staining based flow cytometry; format: functional
[4] = molecular target: T1, Histone deacetylase (Homo sapiens); test: Inhibition of HDAC in human U937 cells assessed as increase in histone H3 acetylation at 50 uM after 24 hrs by western blot analysis; format: cell-based; conditions: U-937
[5] = molecular target: T1, Histone deacetylase (Homo sapiens); test: Inhibition of HDAC in human U937 cells assessed as increase in alpha tubulin acetylation at 50 uM after 24 hrs by western blot analysis; format: cell-based; conditions: U-937
U-937 [6] = test: Induction of apoptosis in human U937 cells at 50 uM after 30 hrs by caspase 3-7 activation method based FACS analysis; format: functional
U-937 [7] = test: Induction of apoptosis in human U937 cells after 30 hrs by caspase 3-7 activation method based FACS analysis; format: functional, cell-based
U-937 [8] = test: Induction of granulocytic differentiation in human U937 cells assessed as CD11c positive/propidium iodide negative cells after 30 hrs by FACS analysis; format: functional, cell-based
U-937 [9] = test: Induction of granulocytic differentiation in human U937 cells assessed as CD11c positive/propidium iodide negative cells at 50 uM after 30 hrs by FACS analysis; format: functional

Row | Structure (SMILES) | inhibition [1] | inhibition [2] | inhibition [4] | inhibition [5] | Activity (U-937 [3]) | Activity (U-937 [6]) | Activity (U-937 [7]) | Activity (U-937 [8]) | Activity (U-937 [9])
1 | COC(=O)c1cc(OCCCCCOc2ccc(NC(=O)Cc3ccccc3)cc2)cc(C(=O)OC)n1 | inactive | inactive |  |  | Active |  |  |  | 
2 | COC(=O)c1cc(OCCCCCCCCOc2ccc(NC(=O)Cc3ccccc3)cc2)cc(C(=O)OC)n1 | inactive | inactive |  |  | Active |  |  |  | 
3 | COC(=O)c1cc(OCCCCOc2ccc(NC(=O)Cc3ccccc3)cc2)cc(C(=O)OC)n1 | inactive | inactive |  |  | Active |  |  |  | 
4 | COC(=O)c1cc(OCCCCCCOc2ccc(NC(=O)Cc3ccccc3)cc2)cc(C(=O)OC)n1 | inactive | inactive |  |  | Active |  |  |  | 
5 | COC(=O)c1cc(OCCCCCSc2nc(-c3ccccc3)cc(=O)[nH]2)cc(C(=O)OC)n1 |  |  | Active | Active | <=50% | <=50% | Dose-dependent effect |  | 
6 | COC(=O)c1cc(OCCCCC(=O)Nc2ccccc2)cc(C(=O)OC)n1 | inactive | inactive |  |  | Active |  |  |  | 
7 | COC(=O)c1cc(OCCCCSc2nc(-c3ccccc3)cc(=O)[nH]2)cc(C(=O)OC)n1 |  |  | Active | Active | <=50% | <=50% | Dose-dependent effect |  | 
8 | COC(=O)c1cc(OCCOc2ccc(NC(=O)Cc3ccccc3)cc2)cc(C(=O)OC)n1 | inactive | inactive |  |  | Active |  |  |  | 
9 | COC(=O)c1cc(OCCCCCCCOc2ccc(NC(=O)Cc3ccccc3)cc2)cc(C(=O)OC)n1 | inactive | inactive |  |  | Active |  |  |  | 
10 | COC(=O)c1cc(OCc2ccc(NC(=O)Cc3ccccc3)cc2)cc(C(=O)OC)n1 | inactive | inactive |  |  | Active |  |  |  | 
11 | COC(=O)c1cc(Oc2ccc(NC(=O)Cc3ccccc3)cc2)cc(C(=O)OC)n1 | inactive | inactive |  |  | Active |  |  | Dose-dependent effect | <=40%
12 | COC(=O)c1cc(OCCCOc2ccc(NC(=O)Cc3ccccc3)cc2)cc(C(=O)OC)n1 | inactive | inactive |  |  | Active |  |  |  | 

Second part, led by results:

Row | inhibition [1] | inhibition [2] | inhibition [4] | inhibition [5] | Structure (SMILES) | Activity (U-937 [3]) | Activity (U-937 [6]) | Activity (U-937 [7]) | Activity (U-937 [8]) | Activity (U-937 [9])
13 | inactive | inactive |  |  | O=C(O)c1cc(OCCCCSc2nc(-c3ccccc3)cc(=O)[nH]2)cc(C(=O)O)n1 | inactive |  |  |  | 
14 | inactive | inactive |  |  | O=C(O)c1cc(OCCSc2nc(-c3ccccc3)cc(=O)[nH]2)cc(C(=O)O)n1 | inactive |  |  |  | 
15 |  |  | Active | Active | COC(=O)c1cc(OCCSc2nc(-c3ccccc3)cc(=O)[nH]2)cc(C(=O)OC)n1 | <=50% | <=50% | Dose-dependent effect |  | 
16 | inactive | inactive |  |  | COC(=O)c1cc(OCCCSc2nc(-c3ccccc3)cc(=O)[nH]2)cc(C(=O)OC)n1 |  |  |  |  | 
17 | inactive | inactive |  |  | O=C(O)c1cc(OCCCCCSc2nc(-c3ccccc3)cc(=O)[nH]2)cc(C(=O)O)n1 | inactive |  |  |  | 
18 | inactive | inactive |  |  | O=C(O)c1cc(OCCCSc2nc(-c3ccccc3)cc(=O)[nH]2)cc(C(=O)O)n1 | inactive |  |  |  | 
